Test results from article PMC12446468, “Anti-inflammatory and cytotoxic assessment of flavonoids isolated from Viola odorata flowers with computer-guided docking study” (Scientific Reports, 2025).
pIC50: −log10 of the molar value.

Target: T1, COX-2 (Homo sapiens, UniProt P35354)
T1 construct: purchased Cayman 560131
T1 sequence (P35354 18-604): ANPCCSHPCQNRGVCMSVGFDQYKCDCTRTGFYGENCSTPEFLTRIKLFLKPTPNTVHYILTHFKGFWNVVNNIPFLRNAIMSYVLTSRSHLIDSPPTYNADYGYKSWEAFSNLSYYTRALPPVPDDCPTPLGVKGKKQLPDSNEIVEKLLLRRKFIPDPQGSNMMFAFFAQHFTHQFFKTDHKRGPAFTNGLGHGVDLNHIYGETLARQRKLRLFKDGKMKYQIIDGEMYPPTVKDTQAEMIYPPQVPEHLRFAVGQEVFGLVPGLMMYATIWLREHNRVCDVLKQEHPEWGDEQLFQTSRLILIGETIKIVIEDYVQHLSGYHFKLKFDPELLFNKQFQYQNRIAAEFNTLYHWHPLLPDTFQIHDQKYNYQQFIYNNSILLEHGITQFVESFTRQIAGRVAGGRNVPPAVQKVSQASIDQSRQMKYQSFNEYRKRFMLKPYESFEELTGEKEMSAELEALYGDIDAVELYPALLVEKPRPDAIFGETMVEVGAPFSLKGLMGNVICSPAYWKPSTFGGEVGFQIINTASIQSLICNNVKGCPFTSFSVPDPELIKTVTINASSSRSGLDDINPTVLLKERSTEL
Assay: COX-2 inhibition assay (Cayman COX kit)
Format: biochemical, ovine/human
Description: The requirements for High-Performance Liquid Chromatography (HPLC) and all compounds tested were of the utmost analytical purity. […] COX-1 and COX-2 (ovine/human), as well as the 5-LOX enzyme (human recombinant) were obtained from Sigma-Aldrich. Dulbecco’s Modified Eagle’s Medium (DMEM), along with penicillin/streptomycin and L-glutamine, were acquired from Gibco BRL, California, USA. Fetal bovine serum (FBS) and 3-(4, 5-dimethylthiazol-2-yl)-2, 5-[…] (MTT) were supplied by Sigma-Aldrich, St. Louis, Missouri, USA.
The methanolic extract of V. odorata flowers and isolated flavonoids were subjected to an in vitro anti-inflammatory assessment by inhibiting two isoenzymes, cyclooxygenase COX-1 and COX-2 (ovine/human), as well as the 5-LOX enzyme (human recombinant).

- pIC50 (mean ± SE, n = 3): 5.33
- Selectivity Index (COX-1/COX-2) (ratio of IC50 COX-1 to IC50 COX-2): 0.83
Compound: COc1c(O)cc2oc(-c3ccccc3)c(OC)c(=O)c2c1O [5,7-Dihydroxy-3,6-dimethoxyflavone]
